From patent US7932262B2 (Novartis AG, priority 2006, dated 2011)
Read-outs that look alike come from different tables or passages of the source.

How the values were obtained:
A2780 cells = test: Cell Proliferation Assay (Cell Titer Glo), A2780; format: cell-based; details: Homo sapiens; cell proliferation, A2780 cells; read-out: CPEC50 A2780
Outline: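 Following a 3-day compound exposure (37° C., 5% CO2) of A2780 or PC3MM cells plated at 1000 per well, viability was measured by Cell Titer Glo luminescence in fresh medium, read 10 min after reagent addition.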

PDK1 kinase = target: T1, PDK1 kinase (Homo sapiens, UniProt O15530); test: PDK1 Kinase Alpha Screen Assay; format: biochemical
T1 sequence (O15530 1-556): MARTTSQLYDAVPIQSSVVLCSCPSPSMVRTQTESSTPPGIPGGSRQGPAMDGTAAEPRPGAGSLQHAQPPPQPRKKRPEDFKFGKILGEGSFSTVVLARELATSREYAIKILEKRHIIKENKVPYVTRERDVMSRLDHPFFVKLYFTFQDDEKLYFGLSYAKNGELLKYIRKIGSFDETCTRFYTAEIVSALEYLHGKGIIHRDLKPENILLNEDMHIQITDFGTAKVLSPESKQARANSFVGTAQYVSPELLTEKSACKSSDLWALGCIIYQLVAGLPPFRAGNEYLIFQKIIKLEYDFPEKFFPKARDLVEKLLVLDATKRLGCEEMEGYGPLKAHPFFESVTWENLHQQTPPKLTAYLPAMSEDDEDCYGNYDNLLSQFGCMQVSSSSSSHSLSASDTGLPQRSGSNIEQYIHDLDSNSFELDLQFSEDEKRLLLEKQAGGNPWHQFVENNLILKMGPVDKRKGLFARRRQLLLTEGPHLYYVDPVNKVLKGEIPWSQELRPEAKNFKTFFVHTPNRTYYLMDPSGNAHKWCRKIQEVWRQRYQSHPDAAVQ
Outline: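 AlphaScreen readout: phospho-peptide captured by phospho-(Ser/Thr) PKA substrate antibody (0.3 mg/ml) on protein A acceptor beads, biotin peptide on streptavidin donor beads (25 μg/ml each), overnight at room temperature. Kinase step used 50 nM PDK1-4 peptide, 10 uM ATP, 3-18 hours.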

PC3MM cells = test: Cell Proliferation Assay (Cell Titer Glo), PC3MM; format: cell-based; details: read-out: CPEC50 PC3MM
Procedure: IV. Cell Proliferation Assay Protocol:
A2780, PC-3, or PC3MM cells were seeded at 1000 cells/well in 100 μL/well (10.000 cells/mL) growth media in 96-well plates. Cells were allowed to adhere to the bottom of plates for 3-5 hours in a 37° C. 5% CO2 incubator. Compounds were dissolved in DMSO and then transferred to the cell plates. The cells were incubated with the compounds for 3 days in a 37° C. 5% CO2 incubator. The growth medium containing the compounds was then removed from the cells and fresh medium was added, followed by 100 μL of Cell Titer Glo assay reagent (Promega). This mixture was shaken for 1 minute and then incubated without shaking for 10 minutes. Activity determinations for the compounds were made by detection on a Trilux Instrument.

[1] = PDK1 Kinase Alpha Screen Assay, read-out: PDK1 IC50
[2] = cell proliferation, PC3MM cells
[3] = Cell Proliferation Assay, PC3MM

SMILES	EC50 (A2780 cells) [µM]	IC50 (PDK1 kinase; [1]) [µM]	EC50 (PC3MM cells; [2]) [µM]	EC50 (PC3MM cells; [3]) [µM]	IC50 (PDK1 kinase; head of the second part of Table 4: BV11261, read-out: PDK1 BV11261) [µM]	EC50 (PC3MM cells; PC3MM cells) [µM]
Nc1ccc(-c2ccc3cnc(Nc4ccc(S(N)(=O)=O)cc4)nc3c2)cn1 [Compound 789, 4-(7-(6-aminopyridin-3-yl)quinazolin-2-ylamino)benzenesulfonamide]	< 5	< 5	< 5	–	–	–
NS(=O)(=O)c1ccc(Nc2ncc3ccc(-c4cccc(S(N)(=O)=O)c4)cc3n2)cc1 [Compound 786, 3-(2-(4-sulfamoylphenylamino)quinazolin-7-yl)benzenesulfonamide]	5 to 10	< 5	< 5	–	–	–
NS(=O)(=O)c1ccc(Nc2ncc3ccc(-c4cccnc4)cc3n2)cc1 [Compound 793, 4-(7-(pyridin-3-yl)quinazolin-2-ylamlno)benzenesulfonamide]	< 5	< 5	< 5	–	–	–
NC(=O)c1ccc(-c2ccc3cnc(Nc4ccc(S(N)(=O)=O)cc4)nc3c2)cc1 [Compound 783, 4-(2-(4-sulfamoylphenylamino)quinazolin-7-yl)benzamide]	5 to 10	< 5	< 5	–	–	–
NC(=O)c1cccc(-c2ccc3cnc(Nc4ccc(S(N)(=O)=O)cc4)nc3c2)c1 [Compound 782]	5 to 10	< 5	< 5	–	–	–
NC(=O)c1cc(Nc2ncc3cc(-c4cn[nH]c4)c(OC4CCNCC4)cc3n2)cc(N2CCOCC2)c1 [Compound 674, 3-morpholino-5-(7-(piperidin-4-yloxy)-6-(1H-pyrazol-4-yl)quinazolin-2-ylamino)benzamide]	–	< 5	–	5 to 10	–	–
O=C(c1cc(Nc2ncc3cc(-c4cn[nH]c4)cc(OC4CCNCC4)c3n2)cc(N2CCOCC2)c1)N1CCOCC1 [Compound 664, morpholino(3-morpholino-5-(8-(piperidin-4-yloxy)-6-(1H-pyrazol-4-yl)quinazolin-2-ylamino)phenyl)methanone]	–	< 5	–	5 to 10	–	–
COC(=O)Nc1cc(CN2CCOCC2)cc(Nc2ncc3ccc(-c4cnn(CCC(C)C)c4)c(OC)c3n2)c1 [Compound 1042, methyl 3-(7-(1-isopentyl-1H-pyrazol-4-yl)-8-methoxyquinazolin-2-ylamino)-5-(morpholinomethyl)phenylcarbamate]	–	–	–	–	< 5	< 5
NC(=O)c1ccccc1-c1ccc2cnc(Nc3ccc(S(N)(=O)=O)cc3)nc2c1 [Compound 784, 2-(2-(4-sulfamoylphenylamino)quinazolin-7-yl)benzamide]	–	< 5	< 5	–	–	–
CC(=O)Nc1cc(NC(C)=O)cc(Nc2ncc3ccc(OC4CCNCC4)cc3n2)c1 [Compound 658, N,N′-(5-(7-(piperidin-4-yloxy)quinazolin-2-ylamino)-1,3-phenylene)diacetamide]	–	< 5	–	5 to 10	–	–
NC(=O)c1cc(Nc2ncc3cc(-c4cnoc4)c(OC4CCNCC4)cc3n2)cc(N2CCOCC2)c1 [Compound 680, 3-(6-(isoxazol-4-yl)-7-(piperidin-4-yloxy)quinazolin-2-ylamino)-5-morpholinobenzamide]	–	< 5	–	5 to 10	–	–
NC(=O)c1cc(Nc2ncc3cc(-c4nccs4)c(OC4CCNCC4)cc3n2)cc(N2CCOCC2)c1 [Compound 675, 3-morpholino-5-(7-(piperidin-4-yloxy)-6-(thiazol-2-yl)quinazolin-2-ylamino)benzamide]	–	< 5	–	5 to 10	–	–
CN1CCC(Oc2ccc3cnc(Nc4ccc(N5CCOCC5)cc4)nc3c2)CC1 [Compound 655, 7-(1-methylpiperidin-4-yloxy)-N-(4-morpholinophenyl)quinazolin-2-amine]	–	< 5	–	< 5	–	–
CC(=O)Nc1cccc(-c2ccc3cnc(Nc4ccc(S(N)(=O)=O)cc4)nc3c2)c1 [Compound 785, N-(3-(2-(4-sulfamoylphenylamino)quinazolin-7-yl)phenyl)acetamide]	–	5 to 10	5 to 10	–	–	–
Cn1cc(-c2cc(Nc3ncc4cc(Br)cc(OC5CCNCC5)c4n3)cc(C(N)=O)c2)cn1 [Compound 671, 3-(6-bromo-8-(piperidin-4-yloxy)quinazolin-2-ylamino)-5-(1-methyl-1H-pyrazol-4-yl)benzamide]	–	< 5	–	< 5	–	–
CS(=O)(=O)Nc1cccc(-c2ccc3cnc(Nc4ccc(S(N)(=O)=O)cc4)nc3c2)c1 [Compound 788, 4-(7-(3-(methylsulfonamido)phenyl)quinazolin-2-ylamino)benzenesulfonamide]	–	10 to 25	10 to 25	–	–	–
c1cc(N2CCOCC2)ccc1Nc1ncc2cc(-c3cn[nH]c3)c(OC3CCNCC3)cc2n1 [Compound 651, N-(4-morpholinophenyl)-7-(piperidin-4-yloxy)-6-(1H-pyrazol-4-yl)quinazolin-2-amine]	–	< 5	–	< 5	–	–
O=C(c1cc(Nc2ncc3cc(Br)cc(OC4CCNCC4)c3n2)cc(N2CCOCC2)c1)N1CCOCC1 [Compound 670, (3-(6-bromo-8-(piperidin-4-yloxy)quinazolin-2-ylamino)-5-morpholinophenyl)(morpholino) methanone]	–	< 5	–	< 5	–	–
NC(=O)c1cc(Nc2ncc3cc(Br)cc(OC4CCNCC4)c3n2)cc(N2CCOCC2)c1 [Compound 669, 3-(6-bromo-8-(piperidin-4-yloxy)quinazolin-2-ylamino)-5-morpholinobenzamide]	–	< 5	–	5 to 10	–	–
Cn1cc(-c2cc(Nc3ncc4cc(-c5nccs5)cc(OC5CCNCC5)c4n3)cc(C(N)=O)c2)cn1 [Compound 673, 3-(1-methyl-1H-pyrazol-4-yl)-5-(8-(piperidin-4-yloxy)-6-(thiazol-2-yl)quinazolin-2-ylamino)benzamide]	–	< 5	–	5 to 10	–	–
C#Cc1cc(OC2CCNCC2)c2nc(Nc3cc(NC(C)=O)cc(-c4cncnc4)c3)ncc2c1 [Compound 657, N-(3-(6-ethynyl-8-(piperidin-4-yloxy)quinazolin-2-ylamino)-5-(pyrimidin-5-yl)phenyl)acetamide]	–	< 5	–	< 5	–	–
CC(=O)N1CCC(Oc2cc3nc(Nc4ccc(N5CCOCC5)cc4)ncc3cc2-c2nccs2)CC1 [Compound 690, 1-(4-(2-(4-morpholinophenylamino)-6-(thiazol-2-yl)quinazolin-7-yloxy)piperidin-1-yl)ethanone]	–	< 5	–	< 5	–	–
C#Cc1cc2cnc(Nc3cc(C(N)=O)cc(N4CCOCC4)c3)nc2cc1OC1CCNCC1 [Compound 679, 3-(6-ethynyl-7-(piperidin-4-yloxy)quinazolin-2-ylamino)-5-morpholinobenzamide]	–	< 5	–	5 to 10	–	–
COc1cc(Nc2ncc3cc(-c4nccs4)c(OC4CCNCC4)cc3n2)cc(-n2nnnc2C)c1 [Compound 682, N-(3-methoxy-5 (5-methyl-1H-tetrazol-1-yl)phenyl)-7-(piperidin-4-yloxy)-6-(thiazol-2-yl)quinazolin-2-amine]	–	< 5	–	< 5	–	–
COC(=O)Nc1cc(Nc2ncc3cc(-c4cn[nH]c4)c(OC4CCNCC4)cc3n2)cc(-c2cn[nH]c2)c1 [Compound 661, methyl 3-(7-(piperidin-4-yloxy)-6-(1H-pyrazol-4-yl)quinazolin-2-ylamino)-5-(1H-pyrazol-4-yl)phenylcarbamate]	–	< 5	–	< 5	–	–
NC(=O)c1cc(Nc2ncc3cc(-c4nccs4)cc(OC4CCNCC4)c3n2)cc(N2CCOCC2)c1 [Compound 672, 3-morpholino-5-(8-(piperidin-4-yloxy)-6-(thiazol-2-yl)quinazolin-2-ylamino)benzamide]	–	< 5	–	5 to 10	–	–
CN1CCC(Oc2cc3nc(Nc4cc(C(N)=O)cc(N5CCOCC5)c4)ncc3cc2-c2nccs2)CC1 [Compound 678, 3-(7-(1-methylpiperidin-4-yloxy)-6-(thiazol-2-yl)quinazolin-2-ylamino)-5-morpholinobenzamide]	–	< 5	–	< 5	–	–
CN1CCC(Oc2ccc3cnc(Nc4cc(C(N)=O)cc(-c5cnn(C)c5)c4)nc3c2)CC1 [Compound 660, 3-(1-methyl-1H-pyrazol-4-yl)-5-(7-(1-methylpiperidin-4-yloxy)quinazolin-2-ylamino)benzamide]	–	< 5	–	< 5	–	–
